Columns and labels:
Assay in all cases: protein kinase blot: kinases renatured on the blot, labeling with [γ-32P]ATP
Format in all cases: biochemical
[1] = target: porcine C (Sus scrofa, UniProt P36887)
Method: (§1) Ejaculated sperm were -collected and washed and demembranated as described in San Agustin et al., Cell Motl. Cytoskel., 24:264-73, 1993. Samples of demembranated sperm were dissolved in SDS-PAGE sample buffer (10% glycerol, 3% SDS, 0.03% bromphenol blue, 50 mM DTT, 62.5 mM Tris-HCl, pH 6.8), and then electrophoresed in a 1.5-mm thick gradient gel (5-15%, 12×14 cm). Protein kinases were renatured on the blot and incubated in the presence of [γ−^32P]ATP using a protocol adapted from Ferrell and Martin, Methods Enzymol., 200:430-35, 1991 and described in San Austin et al., Methods Cell Biol., 47:135-40, 1995. Under these condition, bound kinases phosphorylated themselves or the blocking reagent. In some experiments, 1% poly(Glu,Tyr) 4:1, a tyrosine kinase substrate, was used as blocking solution in place of 5% BSA. […] Two prominent bands at ˜Mr 40,000 and 39,000 migrated slightly faster than porcine C (41 kDa). To determine if either of these was Cs, the incubation with [γ−^32P]ATP was carried out in the presence of PKI(5-24), a potent inhibitor of C, including ram Cs, activity. […] Labeling of the other bands was not affected by PKI(5-24).

[2] = system: other putative kinase bands of demembranated sperm; details: demembranated ram sperm
Method: as §1

[3] = target: T1, ~Mr 40,000 band from sperm (Cs) (Ovis aries, UniProt Q9MZD9); details: demembranated ram sperm
T1 construct: Samples of demembranated sperm were dissolved in SDS-PAGE sample buffer; from tissue; host or cells: ejaculated, demembranated ram sperm
Method: as §1

PKI(5-24)
labeling of porcine C with [γ-32P]ATP in the presence of inhibitor [1]: completely and specifically blocked
labeling of the other bands with [γ-32P]ATP in the presence of inhibitor [2]: not affected
labeling of the ~Mr 40,000 band from sperm with [γ-32P]ATP in the presence of inhibitor [3]: completely and specifically blocked

From US6531305B1, “Sperm associated protein kinase polypeptides, corresponding nucleic acids, and methods of use” (University of Massachusetts, priority 1998, dated 2003)
